Test system: platelet aggregation
Test: blood platelet aggregation inhibition, collagen as inducer
Format: cell-based
Details: 10^-4 mole, rabbit PRP
Text: Blood platelet aggregation inhibiting effect
Male rabbits (Japan original white strain 3.3 to 3.6 kg) were anesthetized with Thiopental sodium and blood was sampled from the carotid artery.

| SMILES | Blood platelet agg. inh. (percentage inhibition of platelet aggregation) [%] |
| --- | --- |
| CC(C)Cc1ccc(C(=O)c2ccccc2)cc1 [compound 67] | 18.5 |
| Cc1ccc(C(=O)Cc2ccccc2)cc1 [compound 48] | 20.5 |
| CCCCCc1ccc(C(=O)c2ccccc2C)cc1 [compound 41] | 14.4 |
| CCCCCc1ccc(C(=O)c2ccc(O)cc2)cc1 [compound 105] | 24.1 |
| CCCCc1ccc(CCCC)c(C(=O)c2ccccc2)c1 [compound 77] | 25.1 |
| CCCCCCCCCCCc1ccc(C(=O)Cc2ccccc2)cc1 [compound 51] | 9.5 |
| CCc1ccc(C(=O)C(=O)c2ccccc2)cc1 [compound 55] | 23.3 |
| CCCc1ccc(C(=O)c2ccc(OC)cc2)cc1 [compound 93] | 24.4 |
| CCCCCCCCCCCCc1ccc(C(=O)c2ccccc2)cc1 [compound 69] | 13.5 |
| Cc1ccc(C(=O)c2c(C)cc(C)cc2C)cc1 [compound 86] | 28.3 |
| CCOc1ccc(C(=O)c2ccccc2)cc1 [compound 81] | 18.3 |
| Cc1ccc(C(=O)c2ccccc2)cc1 [compound 65] | 21.0 |
| CCCCCCCCCCc1ccc(C(=O)c2ccccc2)cc1 [compound 68] | 16.5 |
| CCCCCCCCCCc1ccc(C(=O)Cc2ccccc2)cc1 [compound 50] | 8.7 |
| CCCc1ccc(C(=O)c2ccc(CC)cc2)cc1 [compound 112] | 11.8 |
| CCCCCCCCCc1ccc(C(=O)c2ccc(CCCC)cc2)cc1 [compound 102] | 30.4 |
| Cc1cc(C)c(C)c(C(=O)c2ccccc2)c1C [compound 78] | 19.9 |
| CCCCCCCCc1ccc(C(=O)c2ccc(CCCC)cc2)cc1 [compound 101] | 27.9 |
| CCCCc1ccc(C(=O)c2cccc(C)c2)cc1 [compound 88] | 24.5 |
| CCCc1ccc(C(=O)c2ccc(CCC)cc2)cc1 [compound 110] | 20.5 |

| SMILES | Blood platelet agg. inh. (percentage inhibition of platelet aggregation) [%] |
| --- | --- |
| CCCCCCCCCCCCc1ccc(C(=O)Cc2ccccc2)cc1 [compound 52] | 6.8 |
| CCCCOc1ccc(C(=O)c2ccc(CCCC)cc2)cc1 [compound 95] | 30.0 |
| CCCc1ccc(C(=O)c2ccc(C)cc2C)cc1 [compound 96] | 28.5 |
| C=Cc1ccc(C(=O)c2ccccc2)cc1 [compound 82] | 20.5 |
| CCCc1ccc(C(=O)c2cccc(C)c2)cc1 [compound 87] | 30.1 |
| CCCc1ccc(C(=O)c2c(C)cc(C)cc2C)cc1 [compound 97] | 26.8 |
| CCCCCCCc1ccc(C(=O)c2ccc(CCCC)cc2)cc1 [compound 100] | 22.4 |
| CCCCCc1ccc(C(=O)c2ccc(CCCCC)cc2)cc1 [compound 111] | 10.3 |
| CCCCCOc1ccc(C(=O)Cc2ccccc2)cc1 [compound 59] | 25.6 |
| Cc1ccc(C(=O)c2ccc(C)cc2)cc1 [compound 83] | 27.6 |
| CCc1ccc(CC)c(C(=O)c2ccccc2)c1 [compound 80] | 30.3 |
| O=C(c1ccc(F)cc1)c1ccccc1Cl [compound 115] | 25.4 |
| CCCCc1ccc(C(=O)Cc2ccccc2)cc1 [compound 39] | 2.6 |
| COc1ccc(C(=O)Cc2ccc(Cl)cc2)cc1 [compound 60] | 4.0 |
| O=C(c1ccccc1)c1ccc(O)cc1 [compound 109] | 13.7 |
| CCCCCCc1ccc(C(=O)c2ccc(C)cc2)cc1 [compound 36] | 15.1 |
| Cc1cc(C)c(C(=O)c2ccc(O)cc2)c(C)c1 [compound 108] | 28.4 |
| CCCCCCCCCCCc1ccc(C(=O)c2ccccc2)cc1 [compound 71] | 19.5 |
| CCCOc1ccc(C(=O)Cc2ccccc2)cc1 [compound 58] | 20.1 |

Test system: not listed separately
Test: in vivo
Details: mouse, po
Method: Each sample was dissolved in olive oil or dispersed in 1% Tween 20 aqueous solution.

| SMILES | LD50 at 72 h [mg/kg] |
| --- | --- |
| CC(C)Cc1ccc(C(=O)c2ccccc2)cc1 [compound 67] | 2000 |
| Cc1ccc(C(=O)c2ccc(I)cc2)c(C)c1 [compound 165] | 5000 |
| CCCCCc1ccc(C(=O)c2ccccc2C)cc1 [compound 41] | 3000 |
| CCCCCCCCc1ccc(C(=O)c2ccc(I)cc2)cc1 [compound 164] | > 10000 |
| CCCCCc1ccc(C(=O)c2ccc(O)cc2)cc1 [compound 105] | 4000 |
| Cc1ccc(C(=O)c2cccc(Br)c2)c(C)c1 [compound 149] | 500 |
| CCCc1ccc(C(=O)c2cccc(Cl)c2)cc1 [compound 139] | 1000 |
| CCCc1ccc(C(=O)c2ccccc2I)cc1 [compound 154] | > 10000 |
| CCCCCc1ccc(C(=O)c2ccccc2Br)cc1 [compound 144] | 1500 |
| Cc1cc(C)c(C(=O)c2cccc(I)c2)c(C)c1 [compound 163] | 1500 |
| CCCCCCCCc1ccc(C(=O)c2ccccc2I)cc1 [compound 157] | > 10000 |
| CCCCCCOc1ccc(C(=O)c2ccc(Cl)cc2)cc1 [compound 138] | 2500 |
| CCCCCCCCc1ccc(C(=O)c2ccc(F)cc2)cc1 [compound 129] | > 10000 |
| Cc1ccc(C(=O)c2ccccc2Cl)c(C)c1 [compound 135] | 1000 |
| CCCCc1ccc(C(=O)c2cccc(I)c2)cc1 [compound 160] | 2500 |
| CCCCCCCCc1ccc(C(=O)c2ccc(Br)cc2)cc1 [compound 151] | 2500 |
| Cc1cc(C)c(C(=O)c2ccc(I)cc2)c(C)c1 [compound 166] | 5000 |
| CCCCCCCCCCc1ccc(C(=O)Cc2ccccc2)cc1 [compound 50] | > 10000 |
| Cc1ccc(C(=O)c2cccc(I)c2)c(C)c1 [compound 162] | 1500 |
| Cc1cc(C)c(C(=O)c2ccc(Br)cc2)c(C)c1 [compound 153] | 1500 |
| CCCCCc1ccc(C(=O)c2cccc(F)c2)cc1 [compound 124] | 3000 |
| Cc1ccc(C(=O)c2ccccc2Br)c(C)c1 [compound 146] | 1000 |
| CCC(C)(C)c1ccc(C(=O)c2ccccc2F)cc1 [compound 122] | 2000 |
| CC(C)(C)c1ccc(C(=O)c2ccccc2F)cc1 [compound 120] | 750 |
| Cc1cc(C)c(C(=O)c2ccccc2Br)c(C)c1 [compound 147] | 1000 |
| CCCCc1ccc(C(=O)c2cccc(F)c2)cc1 [compound 123] | 1500 |
| CCCc1ccc(C(=O)c2ccccc2Br)cc1 [compound 142] | 1500 |
| Cc1cc(C)c(C(=O)c2ccc(F)cc2)c(C)c1 [compound 131] | 2000 |

| SMILES | LD50 at 72 h [mg/kg] |
| --- | --- |
| CCCCc1ccc(C(=O)c2ccccc2Br)cc1 [compound 143] | 1500 |
| CCCCCc1ccc(C(=O)c2ccc(F)cc2)cc1 [compound 128] | 4000 |
| Cc1ccc(C(=O)c2ccc(Br)cc2)c(C)c1 [compound 152] | 1500 |
| CCCc1ccc(C(=O)c2ccc(Br)cc2)cc1 [compound 150] | 2000 |
| COc1ccc(C(=O)c2ccc(Cl)cc2)cc1 [compound 136] | 2000 |
| CC(C)c1ccc(C(=O)c2ccccc2F)cc1 [compound 117] | 1500 |
| COc1ccc(C(=O)c2ccccc2F)cc1 [compound 116] | 4000 |
| Cc1ccc(C(=O)c2ccc(F)cc2)c(C)c1 [compound 130] | 2000 |
| CCCCCCCCc1ccc(C(=O)c2ccccc2Cl)cc1 [compound 134] | 3000 |
| Cc1cc(C)c(C(=O)c2cccc(F)c2)c(C)c1 [compound 125] | 1000 |
| CCCCCc1ccc(C(=O)c2ccccc2Cl)cc1 [compound 133] | 2000 |
| Cc1cc(C)c(C(=O)c2ccccc2I)c(C)c1 [compound 159] | 1000 |
| CCCCCCCCc1ccc(C(=O)c2ccccc2Br)cc1 [compound 145] | 2000 |
| Cc1ccc(C(=O)c2ccccc2I)c(C)c1 [compound 158] | 2000 |
| Cc1ccc(C(=O)c2cccc(F)c2)c(C)c1 [compound 126] | 1000 |
| CCCCCCCCc1ccc(C(=O)c2cccc(Cl)c2)cc1 [compound 141] | 2000 |
| CC(C)Cc1ccc(C(=O)c2ccccc2F)cc1 [compound 118] | 2000 |
| CCCCc1ccc(C(=O)c2ccc(F)cc2)cc1 [compound 127] | 5000 |
| CCCCc1ccc(C(=O)c2ccccc2I)cc1 [compound 155] | > 10000 |
| CCCCc1ccc(C(=O)Cc2ccccc2)cc1 [compound 39] | > 10000 |
| CCC(C)c1ccc(C(=O)c2ccccc2F)cc1 (stereo not shown) [compound 119] | 2000 |
| CCCCOc1ccc(C(=O)c2ccc(Cl)cc2)cc1 [compound 137] | 2000 |
| CCCc1ccc(C(=O)c2ccccc2Cl)cc1 [compound 132] | 2000 |
| CCCCCc1ccc(C(=O)c2ccccc2I)cc1 [compound 156] | > 10000 |
| CCCCCCCCc1ccc(C(=O)c2cccc(Br)c2)cc1 [compound 148] | 2000 |
| CCCCCCc1ccc(C(=O)c2ccc(C)cc2)cc1 [compound 36] | > 10000 |
| CCCCCc1ccc(C(=O)c2cccc(Cl)c2)cc1 [compound 140] | 1000 |

Test system: painful stretchings induced by acetic acid
Test: acetic acid induced stretching (analgesic effect)
Details: 100 mg/kg oral, 0.7% acetic acid i.p., mice
Method: Each sample was orally administrated in the dosage of 100 mg/kg before injection of acetic acid.

| SMILES | Analgesic (percentage diminution of times of painful stretchings) [%] |
| --- | --- |
| CC(C)Cc1ccc(C(=O)c2ccccc2)cc1 [compound 67] | 19.1 |
| CCCCCc1ccc(C(=O)c2ccccc2C)cc1 [compound 41] | 14.6 |
| CCCCCc1ccc(C(=O)c2ccc(O)cc2)cc1 [compound 105] | 14.1 |

Source: US4124726A, “Anti-inflammatory agent of benzoyl derivative” (priority 1976, dated 1978)
